14 molecules from PubChem BioAssay (NCI) can be followed below.

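Five concentrations, 48 hours, 96-well plates. Definition used: TGI = concentration required for complete inhibition of growth.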

Holding throughout (assay): NCI anticancer screen, dose series, 48 h
Experiment [1] has as its system HL-60(TB) leukemia.
In experiment [2] the test system is MALME-3M melanoma.
Experiment [3] concerns NCI-H226 lung.
Experiment [4] deals with HCC-2998 colon.
Experiment [5] concerns BT-549 breast.
Experiment [6] concerns OVCAR-8 ovarian.
Experiment [7] relates to HS 578T breast.
The test system of experiment [8] is U251 CNS.
The test system of experiment [9] is NCI/ADR-RES ovarian.
The test system of experiment [10] is SK-OV-3 ovarian.
For experiment [11], the system named is SF-268 CNS.
The subject of experiment [12] is IGROV1 ovarian.
Experiment [13] concerns NCI-H23 lung.
In experiment [14] the test system is RPMI-8226 leukemia.
Experiment [15] has as its system SF-539 CNS.
Experiment [16] relates to K-562 leukemia.
Experiment [17] has as its system 786-0 renal.
For experiment [18], the system named is UACC-257 melanoma.
Experiment [19] deals with SF-295 CNS.
For experiment [20], the system named is UO-31 renal.

Turning to `COc1ccc(OC)c(NC(=O)C(=O)Nn2c(=S)[nH]c3ccccc3c2=O)c1`, the TGI in [1], in [2], in [3], in experiment [4], in experiment [5] and in experiment [6] was over 100 µM throughout. Further, the TGI in [7], in experiment [8], in [9], in [10], in [11] and in experiment [12] was over 100 µM each time. Further, the TGI in [13], in experiment [14], in experiment [15], in [16], in experiment [17] and in experiment [18] was over 100 µM in each case. The TGI in [19] and in [20] was over 100 µM throughout.
As for `Cn1cnc2c(OCC3CCCCC3)nc(N)nc21`, the TGI in experiment [1], in experiment [2], in experiment [3], in experiment [4], in experiment [5] and in [6] was over 100 µM each time. Besides, the TGI in experiment [7], in [8], in experiment [9], in experiment [10], in experiment [11] and in experiment [12] was over 100 µM throughout. The TGI in [13], in experiment [14], in [15], in [16], in [17] and in experiment [18] was over 100 µM each time. Also, the TGI in experiment [19] and in experiment [20] was over 100 µM each time.
Take `O=c1oc2ccccc2cc1-c1nnc(-c2ccccc2)s1`: the TGI was 3.5 µM in experiment [1]; over 100 µM in experiment [2]; over 100 µM in [3]; over 100 µM in experiment [4]; over 100 µM in [5]; over 69.4 µM in experiment [6]. The TGI in [7] is over 100 µM; in experiment [8], 26.4 µM; in [9], over 67.2 µM; in experiment [10], over 90 µM; in experiment [11], over 100 µM; in experiment [12], over 66.3 µM. In addition, the TGI is over 100 µM in experiment [13]; over 100 µM in experiment [14]; over 41.8 µM in experiment [15]; over 100 µM in experiment [16]; over 66.6 µM in experiment [17]; over 100 µM in experiment [18]. The TGI in experiment [19] was over 71 µM; in [20], over 100 µM.
Take `NC(C(F)(F)F)(C(F)(F)F)P(=O)(c1ccccc1)c1ccccc1`: the TGI in [1], in experiment [2], in experiment [3], in [4], in [5] and in experiment [6] was over 100 µM in each case. The TGI in [7], in [8], in experiment [9], in [10], in experiment [11] and in experiment [12] was over 100 µM in each case. Moreover, the TGI in experiment [13], in experiment [14], in experiment [15], in [16], in [17] and in experiment [18] was over 100 µM in each case. The TGI in experiment [19] and in [20] was over 100 µM throughout.
Take `c1ccc2[nH]c3[nH]c4[nH]c5ccccc5[nH]c4[nH]c3[nH]c2c1`: the TGI in experiment [1], in experiment [2], in experiment [3], in experiment [4], in experiment [5] and in [6] was over 100 µM throughout. The TGI in experiment [7], in [8], in experiment [9], in experiment [10], in [11] and in experiment [12] was over 100 µM each time. The TGI in experiment [13], in [14], in experiment [15], in experiment [16], in experiment [17] and in [18] was over 100 µM in each case. Besides, the TGI in experiment [19] and in experiment [20] was over 100 µM in each case.
As to `O=C1SC(c2ccc(Cl)cc2)(c2ccc(Cl)cc2)c2ccccc21`, the TGI in experiment [1] is 96.6 µM; in experiment [2] it was over 100 µM; in [3], over 100 µM; in [4], over 100 µM; in experiment [5], over 100 µM; in experiment [6], over 100 µM. Further, the TGI in experiment [7], in [8], in experiment [9], in experiment [10], in experiment [11] and in experiment [12] was over 100 µM in each case. Further, the TGI in experiment [13], in [14], in [15], in experiment [16], in experiment [17] and in experiment [18] was over 100 µM throughout. The TGI in experiment [19] and in experiment [20] was over 100 µM in each case.
`OCCSCc1cc2c(O)c(c1)Cc1cc(CSCCO)cc(c1O)Cc1cc(CSCCO)cc(c1O)Cc1cc(CSCCO)cc(c1O)C2`: the TGI in [1] was over 100 µM; in [2], 5.88 µM; in [3], 37.5 µM; in experiment [4] it was 23.1 µM; in [5], 11.7 µM; in experiment [6], 17.6 µM. Moreover, the TGI in experiment [7] came to 42.8 µM; in experiment [8], 16.8 µM; in [9], 64.2 µM; in experiment [10], 31.7 µM; in experiment [11], 7.78 µM; in experiment [12], 10.9 µM. For the same molecule, the TGI is 16.7 µM in experiment [13]; 30.6 µM in experiment [14]; 12.6 µM in [15]; over 100 µM in [16]; 12.5 µM in [17]; 27.7 µM in [18]. The TGI is 16.7 µM in [19] and 28.3 µM in [20].
In the case of `Cc1ccc(S(=O)(=O)NC(=O)NCC(=O)NCC(=O)O)cc1`, the TGI in experiment [1], in [2], in experiment [3], in experiment [4], in experiment [5] and in [6] was over 100 µM each time. For the same molecule, the TGI in experiment [7], in experiment [8], in [9], in experiment [10], in experiment [11] and in [12] was over 100 µM in each case. Further, the TGI in [13], in [14], in experiment [15], in [16], in [17] and in experiment [18] was over 100 µM in each case. The TGI in experiment [19] and in experiment [20] was over 100 µM throughout.
In the case of `CCC(CC)C(=O)OC[n+]1cccc(-c2c(COC(=O)NC(C)C)c(COC(=O)NC(C)C)c3n2CCC3)c1`, the TGI in experiment [1], in [2], in [3], in [4], in experiment [5] and in experiment [6] was over 100 µM each time. For the same molecule, the TGI in experiment [7], in [8], in experiment [9], in experiment [10], in experiment [11] and in experiment [12] was over 100 µM each time. The TGI in experiment [13], in experiment [14], in experiment [15], in experiment [16], in experiment [17] and in experiment [18] was over 100 µM throughout. Moreover, the TGI in [19] and in [20] was over 100 µM throughout.
`C/C(=N\NS(=O)(=O)c1ccc(C)cc1)C(CN(C)C)C(c1ccccc1)c1c(O)c2ccccc2oc1=O` (stereo not given): the TGI in experiment [1], in experiment [2], in experiment [3], in experiment [4], in experiment [5] and in experiment [6] was over 100 µM throughout. Also, the TGI in experiment [7], in experiment [8], in [9], in experiment [10], in experiment [11] and in [12] was over 100 µM each time. The TGI in [13], in experiment [14], in [15], in experiment [16], in [17] and in experiment [18] was over 100 µM throughout. Moreover, the TGI in experiment [19] and in [20] was over 100 µM in each case.
Consider `CC(NC(=O)/C(C#N)=C/c1ccc2[nH]ccc2c1)c1ccccc1` (stereo not given), for which the TGI was 54.8 µM in experiment [1]; 71.2 µM in experiment [2]; 53.8 µM in [3]; 34 µM in experiment [4]; 23.5 µM in experiment [5]; 48.8 µM in experiment [6]. Further, the TGI in experiment [7] was 66.4 µM; in [8], 29.4 µM; in experiment [9], over 100 µM; in experiment [10], 40.4 µM; in experiment [11], 42.6 µM; in [12] it was 33.1 µM. Besides, the TGI in [13] was 43.3 µM; in [14], over 73.1 µM; in experiment [15] it was 34.9 µM; in [16] it was over 77.9 µM; in [17] it was 31.8 µM; in experiment [18] it was 38.7 µM. Further, the TGI in experiment [19] stood at 35.4 µM; in [20], 28.3 µM.
For the molecule `COc1ccc2nc3cc([N+](=O)[O-])ccc3c(NNc3ccc(Cl)cc3)c2c1`, the TGI in [1] is over 73.8 µM; in experiment [2], over 100 µM; in experiment [3], 26 µM; in experiment [4], 60.6 µM; in [5], over 92.1 µM; in experiment [6], 65.1 µM. In addition, the TGI in experiment [7] was over 100 µM; in experiment [8], 74.6 µM; in experiment [9], over 100 µM; in experiment [10], over 100 µM; in [11], over 100 µM; in experiment [12] it was 45.1 µM. Besides, the TGI in experiment [13] was over 100 µM; in [14], 78.7 µM; in [15], 97.5 µM; in experiment [16], over 68.3 µM; in experiment [17] it was 53.6 µM; in [18] it was over 100 µM. For the same molecule, the TGI in [19] and in [20] was over 100 µM in each case.
Take `Cc1cnc2[nH]c(-c3ccc(F)cc3)cc(=O)c2c1`: the TGI in [1] was 20.4 µM; in [2], over 100 µM; in [3], over 84.5 µM; in experiment [4], over 100 µM; in experiment [5] it was over 100 µM; in experiment [6], over 100 µM. In addition, the TGI in experiment [7] was over 100 µM; in [8], over 91.8 µM; in [9] it was over 87.5 µM; in experiment [10], over 68 µM; in experiment [11], over 100 µM; in experiment [12], over 100 µM. In addition, the TGI was over 100 µM in experiment [13]; over 73.3 µM in [14]; over 100 µM in [15]; 47 µM in [16]; over 100 µM in [17]; over 100 µM in [18]. In addition, the results for the TGI in [19] and in [20] were 99 µM and over 100 µM, respectively.
For `Cn1cc2c(=O)n3ncn(-c4ccc(Br)cc4)c3nc2n1`, the TGI in experiment [1], in experiment [2], in experiment [3], in [4], in experiment [5] and in experiment [6] was over 100 µM each time. The TGI in experiment [7], in experiment [8], in [9], in experiment [10], in experiment [11] and in [12] was over 100 µM in each case. Further, the TGI in [13], in experiment [14], in experiment [15], in experiment [16], in [17] and in experiment [18] was over 100 µM in each case. Also, the TGI in experiment [19] and in experiment [20] was over 100 µM each time.
